Experimental data: patent US9718828B2 (MERCK SHARP & DOHME CORP., priority 2011, dated 2017)
Structures can show the parent of a compound that is named as a salt.

Biological target: Btk enzyme (His-Btk) (Homo sapiens (Human), UniProt Q06187)
Test: Btk enzyme activity, IMAP fluorescence polarization assay (Assay Method A)
Details: read-out: EC50 Btk activity values - Assay Method A; IMAP-FP, 60 min pre-incubation, 5 μM ATP; class 100-1000 is given as ≧100 nM-<1 μM

Chain of Btk enzyme (His-Btk) (Q06187 whole entry): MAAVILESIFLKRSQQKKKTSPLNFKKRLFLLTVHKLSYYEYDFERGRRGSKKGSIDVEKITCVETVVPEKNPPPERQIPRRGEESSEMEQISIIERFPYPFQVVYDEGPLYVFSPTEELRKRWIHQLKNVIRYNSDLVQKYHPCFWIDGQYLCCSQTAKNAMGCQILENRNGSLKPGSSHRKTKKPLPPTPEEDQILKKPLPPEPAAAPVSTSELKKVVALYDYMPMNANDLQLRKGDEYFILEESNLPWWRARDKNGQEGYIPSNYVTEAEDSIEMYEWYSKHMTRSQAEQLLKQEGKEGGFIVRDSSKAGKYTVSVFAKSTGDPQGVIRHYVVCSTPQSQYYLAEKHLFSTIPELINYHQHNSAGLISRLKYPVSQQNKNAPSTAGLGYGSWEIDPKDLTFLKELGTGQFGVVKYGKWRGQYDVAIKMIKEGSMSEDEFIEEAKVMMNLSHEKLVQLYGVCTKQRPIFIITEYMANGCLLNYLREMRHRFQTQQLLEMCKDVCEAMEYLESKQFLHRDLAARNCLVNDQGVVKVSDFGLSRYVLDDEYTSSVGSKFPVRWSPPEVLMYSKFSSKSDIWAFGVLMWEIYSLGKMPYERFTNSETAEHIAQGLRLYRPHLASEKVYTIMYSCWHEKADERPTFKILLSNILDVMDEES

SMILES	EC50 [nM]
CSCCNC(=O)C1CCCN(c2nc(-c3ccc(C(=O)Nc4cc(C(F)(F)F)ccn4)cc3)c3c(N)nccn23)C1 (stereo not shown) [Example 239, 1-(8-amino-1-(4-(4-(trifluoromethyl)pyridin-2-ylcarbamoyl)phenyl)imidazo[1,5-a]pyrazin-3-yl)-N-(2-(methylthio)ethyl)piperidine-3-carboxamide, TFA salt]	< 10
CS(=O)(=O)CCNC(=O)C1CCCN(c2nc(-c3ccc(C(=O)Nc4cc(C(F)(F)F)ccn4)cc3)c3c(N)nccn23)C1 (stereo not shown) [Example 240, 1-(8-amino-1-(4-(4-(trifluoromethyl)pyridin-2-ylcarbamoyl)phenyl)imidazo[1,5-a]pyrazin-3-yl)-N-(2-(methylsulfonyl)ethyl)piperidine-3-carboxamide, TFA salt]	< 10
COC[C@H](C)NC(=O)C1CCCN(c2nc(-c3ccc(C(=O)Nc4cc(C5CC5)ccn4)cc3)c3c(N)nccn23)C1 (stereo partly drawn) [Example 241, 1-(8-amino-1-(4-(4-cyclopropylpyridin-2-ylcarbamoyl)phenyl)imidazo[1,5-a]pyrazin-3-yl)-N-((S)-1-methoxypropan-2-yl)piperidine-3-carboxamide, TFA salt]	< 10
Nc1nccn2c(N3CCCC(C(=O)N4CCCC(F)(F)C4)C3)nc(-c3ccc(C(=O)Nc4cc(C(F)(F)F)ccn4)cc3)c12 (stereo not shown) [Example 243, 4-(8-amino-3-(3-(3,3-difluoropiperidine-1-carbonyl)piperidin-1-yl)imidazo[1,5-a]pyrazin-1-yl)-N-(4-(trifluoromethyl)pyridin-2-yl)benzamide, TFA salt]	< 10
CONC(=O)C1CCCN(c2nc(-c3ccc(C(=O)Nc4cc(C5CC5)ccn4)cc3)c3c(N)nccn23)C1 (stereo not shown) [Example 244, 1-(8-amino-1-(4-(4-cyclopropylpyridin-2-ylcarbamoyl)phenyl)imidazo[1,5-a]pyrazin-3-yl)-N-methoxypiperidine-3-carboxamide, TFA salt]	< 10
Nc1nccn2c(N3CCCC(C(=O)NCC4CC4)C3)nc(-c3ccc(C(=O)Nc4cc(C5CC5)ccn4)cc3)c12 (stereo not shown) [Example 245, 1-(8-amino-1-(4-(4-cyclopropylpyridin-2-ylcarbamoyl)phenyl)imidazo[1,5-a]pyrazin-3-yl)-N-(cyclopropylmethyl)piperidine-3-carboxamide, TFA salt]	< 10

Now from value to compound:

EC50 [nM]	SMILES
< 10	CCNC(=O)C1CCCN(c2nc(-c3ccc(C(=O)Nc4cc(C(F)(F)F)ccn4)cc3)c3c(N)nccn23)C1 (stereo not shown) [Example 236, 1-(8-amino-1-(4-(4-(trifluoromethyl)pyridin-2-ylcarbamoyl)phenyl)imidazo[1,5-a]pyrazin-3-yl)-N-ethylpiperidine-3-carboxamide, TFA salt]
< 10	Nc1nccn2c(N3CCCC(C(=O)N[C@H]4CCOC4)C3)nc(-c3ccc(C(=O)Nc4cc(C(F)(F)F)ccn4)cc3)c12 (stereo partly drawn) [Example 237, 1-(8-amino-1-(4-(4-(trifluoromethyl)pyridin-2-ylcarbamoyl)phenyl)imidazo[1,5-a]pyrazin-3-yl)-N-((S)-tetrahydrofuran-3-yl)piperidine-3-carboxamide, TFA salt]
< 10	Nc1nccn2c(N3CCCC(C(=O)N[C@@H]4CCOC4)C3)nc(-c3ccc(C(=O)Nc4cc(C(F)(F)F)ccn4)cc3)c12 (stereo partly drawn) [Example 238, 1-(8-amino-1-(4-(4-(trifluoromethyl)pyridin-2-ylcarbamoyl)phenyl)imidazo[1,5-a]pyrazin-3-yl)-N-((R)-tetrahydrofuran-3-yl)piperidine-3-carboxamide, TFA salt]
< 10	CONC(=O)C1CCCN(c2nc(-c3ccc(C(=O)Nc4cc(C(F)(F)F)ccn4)cc3)c3c(N)nccn23)C1 (stereo not shown) [Example 242, 1-(8-amino-1-(4-(4-(trifluoromethyl)pyridin-2-ylcarbamoyl)phenyl)imidazo[1,5-a]pyrazin-3-yl)-N-methoxypiperidine-3-carboxamide, TFA salt]
